Source: patent publication US8034778B2, “Neuroprotective compounds and uses thereof” (Ever Neuro Pharma GmbH, priority 2006, dated 2011)
Where two headings read alike, the source gives them in different places. Residues, ends and D or L forms follow the SMILES beside them. No end group written: not given here.

Tested on: telencephalon neurons from 9-day-old chicken embryos (cortical neurons)
Assay type: cell-based
Procedure: 1.1.2. Assay Conditions: • Assay: 2% low serum cell culture assay • Cell source: telencephalon neurons from 9-day-old chicken embryos (Lohman Brown hybrid) • Nutrition medium: EMEM with 1 g glucose/l, 2% FCS, 0.01% gentamycin sulfate and 2 mM L-glutamine • Group size: 4 independent experiments were performed (n =8 for DLHW (SEQ ID NO:2), NIVTPR (SEQ ID NO:3), HGFLPR (SEQ ID NO:4), NMVPFPR (SEQ ID NO:5) and the test matrix) • Evaluation of the effects: • MTT viability assay; absorbance (OD) measured with a plate reader • Duration of one single experiment: • 8 days
(§1) 2.2.1.1. Test Item (DLHW) (SEQ ID NO:2): • Vehicle for dilution: test matrix (6.18 mg/ml NaCl and 0.35 mg/ml KCl) • Application mode: once at the 1st day • Application period: for the whole experiment, i.e. 8 days, from 1st day onwards • Concentrations: 5.6, 11.25, 22.5, 45, 90, 180, 360 and 720 μg/ml • Administration volume: 0.625, 1.25, 2.5, 5, 10, 20, 40, 80 μl/ml medium
as §1, with “2.2.1.2.” for “2.2.1.1.”, “(NIVTPR)” for “(DLHW)”, “NO:3):” for “NO:2):”
as §1, with “2.2.1.3.” for “2.2.1.1.”, “(HGFLPR)” for “(DLHW)”, “NO:4):” for “NO:2):”
as §1, with “2.2.1.4.” for “2.2.1.1.”, “(NMPFPR)” for “(DLHW)”, “NO:5):” for “NO:2):”
2.3. Assay Conditions • Cell culture assays: 2% low serum assay • Cell source: telencephalon neurons from 9-day-old chicken embryos (Lohman Brown hybrid) • Nutrition medium: EMEM with 1 g glucose/l, 2% FCS, 0.01% gentamycin sulfate and 2mM L-glutamine • Group size: 4 independent experiments were performed (n =8for DLHW (SEQ ID NO:2) ant and the test matrix; n =224 for controls) • Evaluation of the effects: MTT viability assay; absorbance (OD) measured with a plate reader • Duration of one single experiment: 8 days
The analytical procedure used in the present example is a 2% low serum assay using isolated avian cortical neurons. With this in vitro cell culture assay the neuroprotective and/or neurotrophic potential of compounds can be evaluated by determining the viability of living neurons after a distinct time period in culture. The method for measuring the amount of viable neurons is the MTT-assay.
To the isolated nerve cells the peptides or test matrix were added once, i.e. at the first day. The 8 concentrations comprising dose range was between 5.6, 11.25, 22.5, 45, 90, 180, 360 and 720 μg/ml medium; the volumes applied were 0.625, 1.25, 2.5, 5, 10, 20, 40, 80 μl/ml medium.
Neuronal viability of cultures was determined with the MTT-assay using a plate-reader (570 nm). The MTT-assay is a sensitive assay measuring the mitochondrial dehydrogenase activity in viable cells only. It is performed according to the method described by Mosmann, J. Immunol. Meth, 1983, 55-63. This assay is based on the reduction of yellow MTT (3-(4,5-dimethylthiazol-2-yl)-2,5,diphenyl tetrazolium bromide), to dark blue formazan crystals by mitochondrial dehydrogenases (succinate dehydrogenase). Since this reaction is catalysed in living cells only the assay can be used for the quantification of cell viability. […]

[1] = 5.6 μg/ml, added at 1DIV, 8 days
[2] = 11.25 μg/ml, added at 1DIV, 8 days
[3] = 22.5 μg/ml, added at 1DIV, 8 days
[4] = 45 μg/ml, added at 1DIV, 8 days
[5] = 90 μg/ml, added at 1DIV, 8 days
[6] = 180 μg/ml, added at 1DIV, 8 days
[7] = 360 μg/ml, added at 1DIV, 8 days
[8] = 720 μg/ml, added at 1DIV, 8 days
[9] = Lohman Brown hybrid, chicken, 8 days, 5.6 μg/ml
[10] = Lohman Brown hybrid, chicken, 8 days, 11.25 μg/ml
[11] = Lohman Brown hybrid, chicken, 8 days, 22.5 μg/ml
[12] = Lohman Brown hybrid, chicken, 8 days, 45 μg/ml
[13] = Lohman Brown hybrid, chicken, 8 days, 90 μg/ml
[14] = Lohman Brown hybrid, chicken, 8 days, 180 μg/ml
[15] = Lohman Brown hybrid, chicken, 8 days, 360 μg/ml
[16] = Lohman Brown hybrid, chicken, 8 days, 720 μg/ml

Compound | viability of cortical neurons, MTT, mean optical density (OD) [1] [OD] | viability of cortical neurons, MTT, mean optical density (OD) [2] [OD] | viability of cortical neurons, MTT, mean optical density (OD) [3] [OD] | viability of cortical neurons, MTT, mean optical density (OD) [4] [OD] | viability of cortical neurons, MTT, mean optical density (OD) [5] [OD] | viability of cortical neurons, MTT, mean optical density (OD) [6] [OD] | viability of cortical neurons, MTT, mean optical density (OD) [7] [OD] | viability of cortical neurons, MTT, mean optical density (OD) [8] [OD] | viability of cortical neurons, mean in % (control is 100%) [9] [%] | viability of cortical neurons, mean in % (control is 100%) [10] [%] | viability of cortical neurons, mean in % (control is 100%) [11] [%] | viability of cortical neurons, mean in % (control is 100%) [12] [%] | viability of cortical neurons, mean in % (control is 100%) [13] [%] | viability of cortical neurons, mean in % (control is 100%) [14] [%] | viability of cortical neurons, mean in % (control is 100%) [15] [%] | viability of cortical neurons, mean in % (control is 100%) [16] [%] | further results
HGFLPR [HGFLPR] | 0.068 | 0.069 | 0.069 | 0.067 | 0.070 | 0.067 | 0.064 | 0.058 | 100.07 | 101.16 | 101.16 | 98.95 | 102.25 | 99.14 | 94.53 | 85.71 | 
NMVPFPR [NMVPFPR] | 0.061 | 0.060 | 0.057 | 0.057 | 0.056 | 0.055 | 0.055 | 0.057 | 98.06 | 95.77 | 90.76 | 90.55 | 89.54 | 87.76 | 87.79 | 91.24 | 
NIVTPR [NIVTPR] | 0.068 | 0.069 | 0.068 | 0.068 | 0.066 | 0.064 | 0.060 | 0.058 | 98.92 | 100.32 | 98.70 | 98.75 | 95.12 | 92.28 | 86.60 | 83.13 | 
CC(C)C[C@H](NC(=O)[C@@H](N)CC(=O)O)C(=O)N[C@@H](Cc1c[nH]cn1)C(=O)N[C@@H](Cc1c[nH]c2ccccc12)C(=O)O [DLHW] (H-DLHW-OH; N-terminus and C-terminus assumed) | 0.062 | 0.062 | 0.085 | 0.136 | 0.217 | 0.272 | 0.254 | 0.257 | 97.85 | 97.68 | 134.51 | 213.12 | 341.82 | 429.54 | 401.23 | 406.75 | maximum effect (viability, control 100%) [15]: 430%; effect beyond control (added at 1DIV, MTT method): 430%; effective dose range (added at 1DIV, MTT method): 45 to 702 µg/mL; maximum effect in % (added at 1DIV, MTT method): 430%; most effectice concentration (added at 1DIV, MTT method): 180 µg/mL; effect above the control level (in higher concentrations (than that of the maximum effect)): ~300%
